ChEMBL document CHEMBL4229336, “Identification of (1S,4S)-2,5-diazabicyclo[2.2.1]heptane-dithiocarbamate-nitrostyrene hybrid as potent antiproliferative and apoptotic inducing agent against cervical cancer cell lines” (Eur J Med Chem, 2018)

Experiments:
[1] = (§1) Antiproliferative activity against human ViBo cells after 24 hrs by crystal violet staining-based assay; format: functional, cell-based
[2] = Cytotoxicity against human ViBo cells assessed as induction of necrosis at antiproliferative IC50 after 24 hrs by LDH release assay relative to control; format: cell-based
Ca-Ski [3] = assay: Antiproliferative activity against human CaSki cells after 24 hrs by crystal violet staining-based assay; format: functional, cell-based
HeLa [4] = assay: Induction of apoptosis in human HeLa cells assessed as caspase3 activity at antiproliferative IC50 after 24 hrs by FITC staining-based FACS analysis (reference value: 3%); format: functional
Ca-Ski [5] = assay: Induction of apoptosis in human CaSki cells assessed as caspase3 activity at antiproliferative IC50 after 24 hrs by FITC staining-based FACS analysis (reference value: 5%); format: functional
Ca-Ski [6] = assay: Cytotoxicity against human CaSki cells assessed as induction of necrosis at antiproliferative IC50 after 24 hrs by LDH release assay relative to control; format: cell-based
HeLa [7] = assay: Cytotoxicity against human HeLa cells assessed as induction of necrosis at antiproliferative IC50 after 24 hrs by LDH release assay relative to control; format: cell-based
[8] = Induction of apoptosis in human ViBo cells assessed as caspase3 activity at antiproliferative IC50 after 24 hrs by FITC staining-based FACS analysis (reference value: 5%); format: functional
HeLa [9] = assay: Antiproliferative activity against human HeLa cells after 24 hrs by crystal violet staining-based assay; format: functional, cell-based
Homo sapiens = species on record: Homo sapiens; assay: as §1; format: functional, cell-based

| Compound | IC50 [1] [µM] | Activity [2] [%] | IC50 (Ca-Ski [3]) [µM] | Activity (HeLa [4]) [%] | Activity (Ca-Ski [5]) [%] | Activity (Ca-Ski [6]) [%] | Activity (HeLa [7]) [%] | Activity [8] [%] | IC50 (HeLa [9]) [µM] | Activity (Homo sapiens) | Activity (Ca-Ski [3]) | Activity (HeLa [9]) |
| --- | --- | --- | --- | --- | --- | --- | --- | --- | --- | --- | --- | --- |
| CC[C@@]1(O)C(=O)OCc2c1cc1n(c2=O)Cc2cc3ccccc3nc2-1 [CAMPTOTHECIN] | 1.92 | 0 | 1.8 | 29 | 62 | 2 | 3 | 48 | 0.94 |  |  |  |
| Cc1ccc(C(C[N+](=O)[O-])SC(=S)N2C[C@@H]3C[C@H]2CN3C(=O)OC(C)(C)C)cc1 (stereo partly specified) | 3.19 | 5 | 5.94 |  |  | 2 | 0 |  | 5.52 | Dose-dependent effect | Dose-dependent effect | Dose-dependent effect |
| CC(C)(C)OC(=O)N1C[C@@H]2C[C@H]1CN2C(=S)SC(C[N+](=O)[O-])c1ccc(F)cc1 (stereo partly specified) | 6.56 | 8 | 6.79 |  |  | 5 | 2 |  | 7.92 | Dose-dependent effect | Dose-dependent effect | Dose-dependent effect |
| CC(C)(C)OC(=O)N1C[C@@H]2C[C@H]1CN2C(=S)SC(C[N+](=O)[O-])c1ccc(C(F)(F)F)cc1 (stereo partly specified) | 7.32 | 0 | 6.1 |  |  | 20 | 5 |  | 6.1 | Dose-dependent effect | Dose-dependent effect | Dose-dependent effect |
